{
  "source": "patent US12121026B1",
  "about": "“N-[(1-phenyl-4H-1,2,4-triazol-3-yl) carbamothioyl]benzamide as an eco-friendly insecticidal agent against spodoptera littoralis” (KING FAISAL UNIVERSITY, priority 2023, dated 2024)",
  "test_system": "second and fourth instars larvae of the laboratory strain of cotton leafworm, S. littoralis",
  "assay": "Insecticidal bioassay screening (castor leaf dip)",
  "assay_type": "in vivo",
  "details": "for Toxicity index %: 72 hrs, Diflubenzuron's LC50/compound's LC50 x100; for LC90 (mg/L) at 95%: after 72 hrs of treatment; for LC50: Spodoptera littoralis, foliar",
  "experimental": "Five concentrations (200, 100, 50, 25, 12.5 ppm) were designed for this synthetic compound and the reference Diflubenzuron compound as the dynamic ingredients based on ppm via diluting the commercial formulation.\nIn this experiment, castor leaves are immersed in each of the previously prepared concentrations of the components for 10 seconds and then left to dry for 60 minutes. Larvae of the second and fourth instars of each checked strain are prepared with treated leaves in gauze-covered glass containers for 72 hrs. An untreated control is made in which leaves are dipped in triton x-100 and distilled water only. Then the preserved leaves were removed & fresh, untreated leaves were provided for 72 hours. Three replicates (10 larvae each) were checked for each concentration. Daily inspection was carried out for all treatments and mortality percentages were recorded 3 days (72 hours) after treatment. The average mortality percentage was corrected employing Abbott's formula. The corrected mortality rate for each of the previously synthesized compounds is statistically calculated according to Finney (1970). Through this rate, the corresponding concentration test lines (LDP lines) are assessed.",
  "key": {"[1]": {"details": "72 h, read-out: LC50 (mg/L) at 95%, 2nd instar larvae, after 72 hrs of treatment"}, "[2]": {"details": "72 h, read-out: LC50 (mg/L) at 95%, 4th instar larvae, after 72 hrs of treatment"}, "[3]": {"details": "against Spodoptera littoralis under laboratory conditions, instar not stated"}},
  "note": "Where two headings read alike, the source gives them in different places.",
  "data": [
    {"smiles": "O=C(NC(=O)c1c(F)cccc1F)Nc1ccc(Cl)cc1", "note": "[Diflubenzuron, reference compound]", "values": [
      {"measurement": "Toxicity index %", "setting": "2nd instar larvae", "value": 100, "unit": "%"},
      {"measurement": "LC90 (mg/L) at 95%", "setting": "2nd instar larvae", "value": 520.0, "unit": "mg/L"},
      {"measurement": "Toxicity index %", "setting": "4th instar larvae", "value": 100, "unit": "%"},
      {"measurement": "LC90 (mg/L) at 95%", "setting": "4th instar larvae", "value": 1540.5, "unit": "mg/L"},
      {"measurement": "LC50", "setting": "[1]", "value": 45.2, "unit": "mg/L"},
      {"measurement": "LC50", "setting": "[2]", "value": 144, "unit": "mg/L"},
      {"measurement": "LC50", "setting": "[3]", "value": 45.2, "unit": "mg/L"}
    ]},
    {"smiles": "O=C(NC(=S)Nc1ncn(-c2ccccc2)n1)c1ccccc1", "note": "[Compound 1, N-[(1-phenyl-1H-1,2,4-triazol-3-yl)carbamothioyl]benzamide]", "values": [
      {"measurement": "Toxicity index %", "setting": "2nd instar larvae", "value": 22.8, "unit": "%"},
      {"measurement": "LC90 (mg/L) at 95%", "setting": "2nd instar larvae", "value": 1733.6, "unit": "mg/L"},
      {"measurement": "LC90 (mg/L) at 95%", "setting": "2nd instar larvae, listed as N-[(1-phenyl-4H-1,2,4-triazol-3-yl)carbamothioyl]benzamide", "value": "about 1733.6 mg/L"},
      {"measurement": "Toxicity index %", "setting": "4th instar larvae", "value": 36.7, "unit": "%"},
      {"measurement": "LC90 (mg/L) at 95%", "setting": "4th instar larvae", "value": 4090.2, "unit": "mg/L"},
      {"measurement": "LC90 (mg/L) at 95%", "setting": "4th instar larvae, listed as N-[(1-phenyl-4H-1,2,4-triazol-3-yl)carbamothioyl]benzamide", "value": "about 4090.2 mg/L"},
      {"measurement": "LC50", "setting": "[1]", "value": "~198", "unit": "mg/L"},
      {"measurement": "LC50", "setting": "[2]", "value": "~392", "unit": "mg/L"},
      {"measurement": "LC50", "setting": "[3]", "value": 198, "unit": "mg/L"}
    ]}
  ]
}
